This assay concerns the target HSD17B13 (Homo sapiens (Human), UniProt Q7Z5P4). As to the kind of experiment: HSD17B13 enzymatic inhibition assay (150 nM or 50 nM HSD17B13). The settings on record: 50 nM HSD17B13; read-out: Inhibition of 50 nM of HSD17B13 IC50. It is filed as biochemical.
HSD17B13, sequence (Q7Z5P4 other isoform, or with tags, fused parts or gaps): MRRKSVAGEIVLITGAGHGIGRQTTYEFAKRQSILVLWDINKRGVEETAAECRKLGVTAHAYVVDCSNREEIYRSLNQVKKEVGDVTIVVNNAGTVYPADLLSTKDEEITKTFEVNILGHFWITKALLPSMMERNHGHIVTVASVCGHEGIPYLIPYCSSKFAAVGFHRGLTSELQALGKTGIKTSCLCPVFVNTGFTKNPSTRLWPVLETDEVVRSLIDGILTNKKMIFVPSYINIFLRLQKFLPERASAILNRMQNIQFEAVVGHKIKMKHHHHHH
On to `O=C(NC(c1ccccc1)c1ccc2c(c1)CNCC2)c1ccc(C(F)(F)F)[nH]c1=O` (centres unmarked) [Compound 108, 2-oxo-N-(phenyl(1,2,3,4-tetrahydroisoquinolin-7-yl)methyl)-6-(trifluoromethyl)-1,2-dihydropyridine-3-carboxamide], for which the IC50 is greater than 10 µM.
Consider `O=C(NC(c1ccccc1)c1ccc(CO)cc1)c1ccc(C(F)(F)F)[nH]c1=O` (centres unmarked) [Compound 109, N-((4-(hydroxymethyl)phenyl) (phenyl)methyl)-2-oxo-6-(trifluoromethyl)-1,2-dihydropyridine-3-carboxamide], for which the IC50 amounted to 0.82 µM.
With `O=C(NC(c1ccccc1)c1ccc2c(c1)NCCC2)c1ccc(C(F)(F)F)[nH]c1=O` (centres unmarked) [Compound 110, 2-oxo-N-(phenyl(1,2,3,4-tetrahydroquinolin-7-yl)methyl)-6-(trifluoromethyl)-1,2-dihydropyridine-3-carboxamide], the IC50 came out at 0.84 µM.
Turning to `O=C(NC(c1ccccc1)c1ccc2c(c1)CCNC2)c1ccc(C(F)(F)F)[nH]c1=O` (centres unmarked) [Compound 112, 2-oxo-N-(phenyl(1,2,3,4-tetrahydroisoquinolin-6-yl)methyl)-6-(trifluoromethyl)-1,2-dihydropyridine-3-carboxamide], the IC50 was greater than 10 µM.
For the compound `O=C(NC(c1ccccc1)c1ccc2c(c1)CNC2)c1ccc(C(F)(F)F)[nH]c1=O` (centres unmarked) [Compound 113, N-(isoindolin-5-yl(phenyl)methyl)-2-oxo-6-(trifluoromethyl)-1,2-dihydropyridine-3-carboxamide], the IC50 is greater than 10 µM.
Then `O=C(NC(c1ccccc1)c1ccc(C2CCN(CC(F)(F)F)CC2)cc1)c1ccc(C(F)(F)F)[nH]c1=O` (centres unmarked) [Compound 114, 2-oxo-N-(phenyl(4-(1-(2,2,2-trifluoroethyl)piperidin-4-yl)phenyl)methyl)-6-(trifluoromethyl)-1,2-dihydropyridine-3-carboxamide], with 0.28 µM; and `Cc1ccc(C(NC(=O)c2cc(C(F)(F)F)c[nH]c2=O)c2ccc(C)cc2)cc1` [Compound 116, N-(di-p-tolylmethyl)-2-oxo-5-(trifluoromethyl)-1,2-dihydropyridine-3-carboxamide], with greater than 10 µM; and `Cc1ccc(C(NC(=O)c2cc(C)c(C(F)F)[nH]c2=O)c2ccc(C)cc2)cc1` [Compound 117, N-(di-p-tolylmethyl)-6-(difluoromethyl)-5-methyl-2-oxo-1,2-dihydropyridine-3-carboxamide], with greater than 10 µM.
As to `C=Cc1cc(C(=O)NC(c2ccc(C)cc2)c2ccc(C)cc2)c(=O)[nH]c1C(F)(F)F` [Compound 118, N-(di-p-tolylmethyl)-2-oxo-6-(trifluoromethyl)-5-vinyl-1,2-dihydropyridine-3-carboxamide], the concentration for half-maximal inhibition (IC50) turned out to be 0.3 µM.
In the case of `CCc1cc(C(=O)NC(c2ccc(C)cc2)c2ccc(C)cc2)c(=O)[nH]c1C(F)(F)F` [Compound 119, N-(di-p-tolylmethyl)-5-ethyl-2-oxo-6-(trifluoromethyl)-1,2-dihydropyridine-3-carboxamide], the IC50 was 0.25 µM.
Then `Cc1ccc(C(NC(=O)c2cc(CCO)c(C(F)(F)F)[nH]c2=O)c2ccc(C)cc2)cc1` [Compound 120, N-(di-p-tolylmethyl)-5-(2-hydroxyethyl)-2-oxo-6-(trifluoromethyl)-1,2-dihydropyridine-3-carboxamide], with 0.87 µM.
`C=CCc1cc(C(=O)NC(c2ccc(C)cc2)c2ccc(C)cc2)c(=O)[nH]c1C(F)(F)F` [Compound 121, 5-allyl-N-(di-p-tolylmethyl)-2-oxo-6-(trifluoromethyl)-1,2-dihydropyridine-3-carboxamide]: the IC50 was found to be 0.22 µM.
`Cc1ccc(C(NC(=O)c2c(C(F)(F)F)cc[nH]c2=O)c2ccc(C)cc2)cc1` [Compound 122, N-(di-p-tolylmethyl)-2-oxo-4-(trifluoromethyl)-1,2-dihydropyridine-3-carboxamide]: the half-maximal inhibitory concentration (IC50) was greater than 10 µM.
Then `Cc1cc(C(F)(F)F)[nH]c(=O)c1C(=O)NC(c1ccccc1)c1ccccc1` [Compound 123, N-benzhydryl-4-methyl-2-oxo-6-(trifluoromethyl)-1,2-dihydropyridine-3-carboxamide], with 5.79 µM.
For the compound `Cc1cc(C(F)(F)F)[nH]c(=O)c1C(=O)NC(c1ccccc1)c1ccc(Cl)cc1` (centres unmarked) [Compound 124, N-((4-chlorophenyl)(phenyl)methyl)-4-methyl-2-oxo-6-(trifluoromethyl)-1,2-dihydropyridine-3-carboxamide], the IC50 worked out at 1.4 µM.
Take `Cc1cc(C(F)(F)F)[nH]c(=O)c1C(=O)NC(c1ccccc1)c1ccc(CC(F)(F)F)cc1` (centres unmarked) [Compound 125, 4-methyl-2-oxo-N-(phenyl(4-(2,2,2-trifluoroethyl)phenyl)methyl)-6-(trifluoromethyl)-1,2-dihydropyridine-3-carboxamide]: the 50% inhibitory concentration (IC50) was 0.96 µM.
In the case of `Cc1ccc(C(NC(=O)c2c(C)cc(C(F)(F)F)[nH]c2=O)c2ccccc2)cc1` (centres unmarked) [Compound 126, 4-methyl-2-oxo-N-(phenyl(p-tolyl)methyl)-6-(trifluoromethyl)-1,2-dihydropyridine-3-carboxamide], the IC50 was determined as 1.75 µM.
Consider `O=C(NC1CCSc2ccccc21)c1ccc(C(F)(F)F)[nH]c1=O` (centres unmarked) [Compound 127, 2-oxo-N-(thiochroman-4-yl)-6-(trifluoromethyl)-1,2-dihydropyridine-3-carboxamide], for which the half-inhibitory concentration (IC50) was determined as 3.75 µM.
Take `O=C(NC1CCOc2ccccc21)c1ccc(C(F)(F)F)[nH]c1=O` (centres unmarked) [Compound 128, N-(chroman-4-yl)-2-oxo-6-(trifluoromethyl)-1,2-dihydropyridine-3-carboxamide]: the IC50 came out at 5.69 µM.
`CC1CC(NC(=O)c2ccc(C(F)(F)F)[nH]c2=O)c2ccccc2O1` (centres unmarked) [Compound 129, N-(2-methylchroman-4-yl)-2-oxo-6-(trifluoromethyl)-1,2-dihydropyridine-3-carboxamide]: the half-maximal inhibitory concentration (IC50) came out at 4.33 µM.
Take `O=C(NC1CCNc2ccccc21)c1ccc(C(F)(F)F)[nH]c1=O` (centres unmarked) [Compound 130, 2-oxo-N-(1,2,3,4-tetrahydroquinolin-4-yl)-6-(trifluoromethyl)-1,2-dihydropyridine-3-carboxamide]: the 50% inhibitory concentration (IC50) was greater than 10 µM.
With `O=C(NC1CCc2cc(Cl)ccc21)c1ccc(C(F)(F)F)[nH]c1=O` (centres unmarked) [Compound 131, N-(5-chloro-2,3-dihydro-1H-inden-1-yl)-2-oxo-6-(trifluoromethyl)-1,2-dihydropyridine-3-carboxamide], the IC50 worked out at 1.82 µM.
Take `O=C(NC1CCCc2ccccc21)c1ccc(C(F)(F)F)[nH]c1=O` (centres unmarked) [Compound 132, 2-oxo-N-(1,2,3,4-tetrahydronaphthalen-1-yl)-6-(trifluoromethyl)-1,2-dihydropyridine-3-carboxamide]: the IC50 was determined as 1.45 µM.
Turning to `Cc1ccc2c(c1)CCC2NC(=O)c1ccc(C(F)(F)F)[nH]c1=O` (centres unmarked) [Compound 133, N-(5-methyl-2,3-dihydro-1H-inden-1-yl)-2-oxo-6-(trifluoromethyl)-1,2-dihydropyridine-3-carboxamide], the IC50 was determined as 1.45 µM.
As to `O=C(NC1CCc2cc(O)ccc21)c1ccc(C(F)(F)F)[nH]c1=O` (centres unmarked) [Compound 135, N-(5-hydroxy-2,3-dihydro-1H-inden-1-yl)-2-oxo-6-(trifluoromethyl)-1,2-dihydropyridine-3-carboxamide], the IC50 was 1.91 µM.
As to `O=C(NC1CCc2c(O)cccc21)c1ccc(C(F)(F)F)[nH]c1=O` (centres unmarked) [Compound 136, N-(4-hydroxy-2,3-dihydro-1H-inden-1-yl)-2-oxo-6-(trifluoromethyl)-1,2-dihydropyridine-3-carboxamide], the IC50 was 1.13 µM.
In the case of `O=C(NC1c2ccccc2COc2ccccc21)c1ccc(C(F)(F)F)[nH]c1=O` (centres unmarked) [Compound 137, N-(6,11-dihydrodibenzo[b,e]oxepin-11-yl)-2-oxo-6-(trifluoromethyl)-1,2-dihydropyridine-3-carboxamide], the IC50 came out at 4.19 µM.
Turning to `C=Cc1ccc2c(c1)Oc1cccc(C=C)c1C2NC(=O)c1ccc(C(F)(F)F)[nH]c1=O` (centres unmarked) [Compound 139, N-(1,6-divinyl-9H-xanthen-9-yl)-2-oxo-6-(trifluoromethyl)-1,2-dihydropyridine-3-carboxamide], the IC50 was 0.51 µM.
For the compound `CCc1ccc2c(c1)Oc1cccc(CC)c1C2NC(=O)c1ccc(C(F)(F)F)[nH]c1=O` (centres unmarked) [Compound 142, N-(1,6-diethyl-9H-xanthen-9-yl)-2-oxo-6-(trifluoromethyl)-1,2-dihydropyridine-3-carboxamide], the IC50 was 0.54 µM.
Then `CCc1ccc2c(c1)Oc1cc(CC)ccc1C2NC(=O)c1ccc(C(F)(F)F)[nH]c1=O` [Compound 143, N-(3,6-diethyl-9H-xanthen-9-yl)-2-oxo-6-(trifluoromethyl)-1,2-dihydropyridine-3-carboxamide], with 0.09 µM.
On to `O=C(NC1c2ccc(CC(F)(F)F)cc2Oc2cc(CC(F)(F)F)ccc21)c1ccc(C(F)(F)F)[nH]c1=O` [Compound 144, N-(3,6-bis(2,2,2-trifluoroethyl)-9H-xanthen-9-yl)-2-oxo-6-(trifluoromethyl)-1,2-dihydropyridine-3-carboxamide], for which the IC50 turned out to be 0.31 µM.
With `O=C(NC1c2ccc(C3CC3)cc2Oc2cc(C3CC3)ccc21)c1ccc(C(F)(F)F)[nH]c1=O` [Compound 145, N-(3,6-dicyclopropyl-9H-xanthen-9-yl)-2-oxo-6-(trifluoromethyl)-1,2-dihydropyridine-3-carboxamide], the IC50 came out at 0.21 µM.
As for `Cc1ccc2c(c1)Oc1cccc(C)c1C2NC(=O)c1ccc(C)[nH]c1=O` (centres unmarked) [Compound 147, N-(1,6-dimethyl-9H-xanthen-9-yl)-6-methyl-2-oxo-1,2-dihydropyridine-3-carboxamide], the IC50 is greater than 10 µM.
Regarding `Cc1ccc2c(c1)C(NC(=O)c1ccc(C(F)(F)F)[nH]c1=O)c1ccccc1O2` (centres unmarked) [Compound 148, N-(2-methyl-9H-xanthen-9-yl)-2-oxo-6-(trifluoromethyl)-1,2-dihydropyridine-3-carboxamide], the half-maximal inhibitory concentration (IC50) was determined as 0.67 µM.
Regarding `Cc1ccc2c(c1)Oc1cc(C)ccc1C2NC(=O)c1ccc(C)[nH]c1=O` [Compound 149, N-(3,6-dimethyl-9H-xanthen-9-yl)-6-methyl-2-oxo-1,2-dihydropyridine-3-carboxamide], the IC50 was greater than 10 µM.

Usually IC50 stands for the concentration needed to halve the response being measured.

The values are drawn from patent US11957687B2 (REGENERON PHARMACEUTICALS, INC., priority 2019, dated 2024).
